Results as given in US11351151B2, “Compound having anticancer activity and preparation method and application” (3D Medicines (Beijing) Co., Ltd., priority 2016, dated 2022).

Tests used:
Assay type in all cases: cell-based
22RV1 = experiment: Cell proliferation assay (Alamar Blue); settings: Homo sapiens, 144 h; 22RV1 tumor cell line; 6 days
Summary of the method: (§1)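 6 d continuous exposure, 37 °C/5% CO2; 9 conc., 3.16× steps from 30 or 100 μM; n=2/conc. Readout resazurin fluor. 560/590 nm, 1–4 h dye. % inhib. normalised to 0%/100% inhibition controls → IC50 (4-param).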

JHH1 = experiment: Cell proliferation assay (Alamar Blue); settings: 144 h; JHH1 liver cancer cell line; 6 days
Summary of the method: as §1

HUH1 = experiment: Cell proliferation assay (Alamar Blue); settings: Homo sapiens, HuH-1, 144 h; HUH1 liver cancer cell line; 6 days
Summary of the method: as §1

SNU886 = experiment: Cell proliferation assay (Alamar Blue); settings: SNU-886, 144 h; SNU886 liver cancer cell line; 6 days
Summary of the method: as §1

MG63 = experiment: Cell proliferation assay (Alamar Blue); settings: Homo sapiens, MG-63, 144 h; MG63 tumor cell line; 6 days
Summary of the method: as §1

NCl-H526 = experiment: Cell proliferation assay (Alamar Blue); settings: 144 h; NCl-H526 tumor cell line; 6 days
Summary of the method: as §1

LC-2-ad = experiment: Cell proliferation assay (Alamar Blue); settings: Homo sapiens, 144 h; LC-2-ad tumor cell line; 6 days
Summary of the method: as §1

[1] = test system: 54 commercial tumor cell lines; experiment: Cell proliferation assay (Alamar Blue), summary over the panel; settings: in almost all tumor cell lines
Description: 1. Instruments and Materials • Thermo 311 CO2 incubator; Haier biosafety cabinet; Molecular Devices microplate reader; Xiangyi brand L530 desktop low speed centrifuge; Olympus IX51 inverted fluorescence microscope, DMEM, RPMI 1640, MEM, DMEM/F12 1:1 medium, Fetal bovine serum, 0.25% trypsin solution, phosphate buffer (Thermo Fisher Shanghai Co., Ltd.); sigma dimethyl sulfoxide (DMSO), resazurin; 54 commercial tumor cell lines (including 26 liver cancer cell lines). Experimental drugs: compounds 1-12 and active drug Linifanib; chemotherapeutic drug Doxorubicin (HY-15142; Shanghai Qianyuan Biomedical Technology Co., Ltd.).
2. Experimental Methods • 2.1 Cultivation of different cell lines • 54 cell lines were cultured in a culture medium containing fetal bovine serum and placed in a 5% CO 2 incubator at 37° C. for incubation. The cells were all grown in an adherent state, and the growth was observed under an inverted microscope, and subculture was performed when the cell confluence rate reached 80%-90%. The proportion and quantity of passage were determined by experimental needs. The ratio of subculture of this cell line was generally 1:2^˜1:3. • 2.2 inhibition effect on the proliferation of different tumor cell lines • Cell test: 54 cell lines in logarithmic growth phase were inoculated in 96-well culture plates at 500^˜1×10^4/well (the optimal seeding density of each cell line was determined in pre-experiment), After incubating at 37° C. for 4 h in a 5% CO2 humidification incubator, added 10 μL of compounds 1-12 or Linifanib to each well, and tested 9 drug concentration gradients for each compound (diluted from the highest concentration of the test by 3.16 times). The solubility of each compound was different at a starting concentration of 30 or 100 μM, respectively. The QC reference compound Doxorubicin was added simultaneously to each cell line test, and the final drug concentrations were 10, 3.16, 1, 0.31, 0.1, 0.03, 0.01, 0.003, and 0.001 μM, respectively. In addition, a positive control group (100% inhibition) and a negative control group (0% inhibition) were set at the same time. The drug group was repeated for 2 wells per concentration, and the positive control group and the negative control group were repeated for 6 wells. After the culture was continued for 6 days in the incubator, AlamarBlue test operation was followed; • AlamarBlue test procedure: Incubated with 10 μL of AlamarBlue reagent per well for 1-4 h, shook for 1-2 min, MD microplate reader EX: 560 nm, EM: 590 nm wavelength to measure fluorescence, recorded the results, calculated the cell inhibition rate of the compound of the invention. […]

SMILES	IC50 (22RV1) [µM]	IC50 (JHH1) [µM]	IC50 (HUH1) [µM]	IC50 (SNU886) [µM]	IC50 (MG63) [µM]	IC50 (NCl-H526) [µM]	IC50 (LC-2-ad) [µM]	IC50 values compared with Linifanib [1]
Cc1ccc(F)c(NC(=O)Nc2ccc(-c3cccc4c3c(N)nn4C(=O)C[C@H](N)C(=O)N[C@@H](CCC(=O)N[C@@H](CCC(=O)N[C@@H](CCC(=O)N[C@@H](CCC(=O)O)C(=O)O)C(=O)O)C(=O)O)C(=O)O)cc2)c1 [Compound 2]	7.81	11.3	6.71	3.75	15.8	8.94	13.5	close to those of Linifanib
Cc1ccc(F)c(NC(=O)Nc2ccc(-c3cccc4c3c(N)nn4C(=O)C[C@H](N)C(=O)N[C@@H](CCC(=O)N[C@@H](CCC(=O)N[C@@H](CCC(=O)N[C@@H](CCC(=O)N[C@@H](CCC(=O)N[C@@H](CCC(=O)N[C@@H](CCC(=O)N[C@@H](CCC(=O)N[C@@H](CCC(=O)O)C(=O)O)C(=O)O)C(=O)O)C(=O)O)C(=O)O)C(=O)O)C(=O)O)C(=O)O)C(=O)O)cc2)c1 [Compound 3]	10.3	14.9	7.93	9.06	27.1	11.3	22.4	close to those of Linifanib
Cc1ccc(F)c(NC(=O)Nc2ccc(-c3cccc4c3c(N)nn4C(=O)C[C@H](N)C(=O)O)cc2)c1 [Compound 10]	6.21	7.43	3.47	1.45	4.37	4.39	6.38	close to those of Linifanib
